Source: patent US20100298141A1, “SUBSTITUTED PYRIDINE N-OXIDE HERBICIDES” (E. I. DU PONT DE NEMOURS AND COMPANY, priority 2007, published 2010)

Tests used:
crabgrass = experiment: Test A pre-/postemergence greenhouse test; assay type: in vivo, Digitaria sanguinalis; conditions: for Plant response rating, Crabgrass, Large: 0 to 100 scale where 0 is no effect and 100 is complete control; for Crabgrass, Large plant response rating: 0 to 100 scale
Summary of the method: (§1)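 Herbicidal effect is a visual injury score given about ten days post-treatment by comparison with untreated controls. Preemergence plots received a directed spray onto sown loam–sand soil; postemergence plants, at the one- to two-leaf stage and 2–10 cm tall, were sprayed at the same time.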

barnyardgrass [1] = experiment: Test A pre-/postemergence greenhouse test; assay type: in vivo, Echinochloa crus-galli; conditions: for Plant response rating, Barnyardgrass: 0 to 100 scale where 0 is no effect and 100 is complete control; for Barnyardgrass plant response rating: 0 to 100 scale
Summary of the method: as §1

downy brome = experiment: Test C pre-/postemergence test; assay type: in vivo, Bromus tectorum
Summary of the method: (§2)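 Seeds were planted and treated preemergence with test chemical in a non-phytotoxic solvent mixture containing surfactant. Postemergence applications of the same formulation went onto plants 2 to 18 cm tall (1- to 4-leaf stage). A dash marks no test result.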

giant foxtail = experiment: Test A pre-/postemergence greenhouse test; assay type: in vivo, Setaria faberi; conditions: for Plant response rating, Foxtail, Giant: 0 to 100 scale where 0 is no effect and 100 is complete control; for Foxtail, Giant plant response rating: 0 to 100 scale
Summary of the method: as §1

blackgrass = experiment: Test C pre-/postemergence test; assay type: in vivo, Alopecurus myosuroides
Summary of the method: as §2

woolly cupgrass = experiment: Test C pre-/postemergence test; assay type: in vivo, Eriochloa villosa
Summary of the method: as §2

duck salad = experiment: Test C flooded paddy test; assay type: in vivo, Heteranthera limosa; conditions: Flood
Summary of the method: (§3)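 Under a constant 3 cm flood, test compounds went directly into the paddy water. Following 13 to 15 days of greenhouse growth, treated species and controls were compared by eye.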

Surinam grass = experiment: Test C pre-/postemergence test; assay type: in vivo, Brachiaria decumbens
Summary of the method: as §2

velvetleaf [2] = experiment: Test A pre-/postemergence greenhouse test; assay type: in vivo, Abutilon theophrasti; conditions: for Plant response rating, Velvetleaf: 0 to 100 scale where 0 is no effect and 100 is complete control; for Velvetleaf plant response rating: 0 to 100 scale
Summary of the method: as §1

velvetleaf [3] = experiment: Test C pre-/postemergence test; assay type: in vivo, Abutilon theophrasti
Summary of the method: as §2

lambsquarters = experiment: Test C pre-/postemergence test; assay type: in vivo, Chenopodium album; conditions: for Plant response rating, Lambsquarters: scale 0 to 100, 0 no effect, 100 complete control
Summary of the method: as §2

common ragweed = experiment: Test C pre-/postemergence test; assay type: in vivo, Ambrosia elation
Summary of the method: as §2

soybean = experiment: Test C pre-/postemergence test; assay type: in vivo, Glycine max
Summary of the method: as §2

barnyardgrass [4] = experiment: Test C flooded paddy test; assay type: in vivo, Echinochloa crus-galli; conditions: Flood
Summary of the method: as §3

green foxtail = experiment: Test C pre-/postemergence test; assay type: in vivo, Setaria viridis
Summary of the method: as §2

pigweed = experiment: Test C pre-/postemergence test; assay type: in vivo, Amaranthus retroflexus; conditions: for Pigweed plant response rating: preemergence, scale 0 (no effect) to 100 (complete control); for Plant response rating (0 to 100), Pigweed / Plant response rating, Pigweed: Postemergence; for Plant response rating, Pigweed: scale 0 to 100, 0 no effect, 100 complete control
Summary of the method: as §2

[5] = Postemergence, 500 g ai/ha, 0 is no effect, 100 is complete control
[6] = Preemergence, 125 g ai/ha, 0 no effect, 100 complete control
[7] = 62 g ai/ha, Preemergence, scale 0 to 100
[8] = 125 g ai/ha, preemergence, scale 0 (no effect) to 100 (complete control)
[9] = Postemergence, 125 g ai/ha, scale 0 to 100, 0 no effect, 100 complete control
[10] = Postemergence, 250 g ai/ha, scale 0 to 100, 0 no effect, 100 complete control
[11] = Preemergence, 31 g ai/ha, scale 0 to 100 (0 no effect, 100 complete control)
[12] = preemergence, 250 g ai/ha, scale 0 (no effect) to 100 (complete control)
[13] = 62 g ai/ha, scale 0 to 100 (0 no effect, 100 complete control)
[14] = 250 g ai/ha, scale 0 to 100, 0 no effect, 100 complete control, 13 to 15 days

Cn1nc(C(F)(F)C(F)(F)F)c(C[S+]([O-])c2cccc[n+]2[O-])c1OCC(F)(F)F (stereo not shown) [Compound 79]
70: Plant response rating, Crabgrass, Large (crabgrass; Postemergence, 125 g ai/ha) | Crabgrass, Large plant response rating (crabgrass; [6]) | Plant response rating (0 to 100), Blackgrass (blackgrass; Postemergence, 31 g ai/ha) | Plant response rating, Velvetleaf (velvetleaf [3]; [10]) | Plant response rating, Lambsquarters (lambsquarters; Postemergence, 250 g ai/ha) | Plant response rating, Barnyardgrass (barnyardgrass [4]; [14]) | Plant response rating, Foxtail, Green (green foxtail; [9]) | Pigweed plant response rating (pigweed; 125 g ai/ha)
40: Plant response rating, Cupgrass, Woolly (woolly cupgrass; [9]) | Plant response rating (0 to 100), Ragweed (common ragweed; Postemergence, 62 g ai/ha)
100: Plant response rating, Crabgrass, Large (crabgrass; Preemergence, 500 g ai/ha) | Barnyardgrass plant response rating (barnyardgrass [1]; [6]) | Plant response rating, Barnyardgrass (barnyardgrass [1]; Preemergence, 500 g ai/ha) | Bromegrass, Downy plant response rating (downy brome; [8]) | Bromegrass, Downy plant response rating (downy brome; [12]) | Plant response rating, Foxtail, Giant (giant foxtail; Preemergence, 500 g ai/ha) | Blackgrass plant response rating (blackgrass; [7]) | Blackgrass plant response rating (blackgrass; [8]) | Blackgrass plant response rating (blackgrass; [12]) | Cupgrass, Woolly plant response rating (woolly cupgrass; [12]) | Plant response rating, Ducksalad (duck salad; [14]) | Surinam Grass plant response rating (Surinam grass; [12]) | Plant response rating, Velvetleaf (velvetleaf [2]; Preemergence, 500 g ai/ha) | Velvetleaf plant response rating (velvetleaf [3]; [7]) | Velvetleaf plant response rating (velvetleaf [3]; [8]) | Plant response rating, Velvetleaf (velvetleaf [3]; [11]) | Velvetleaf plant response rating (velvetleaf [3]; [12]) | Lambsquarters plant response rating (lambsquarters; [8]) | Lambsquarters plant response rating (lambsquarters; [12]) | Ragweed plant response rating (common ragweed; [8]) | Ragweed plant response rating (common ragweed; [12]) | Foxtail, Green plant response rating (green foxtail; [8]) | Foxtail, Green plant response rating (green foxtail; [12]) | Pigweed plant response rating (pigweed; 250 g ai/ha)
20: Plant response rating, Bromegrass, Downy (downy brome; [9]) | Plant response rating, Pigweed (pigweed; 125 g ai/ha)
85: Surinam Grass plant response rating (Surinam grass; [7]) | Plant response rating, Surinam Grass (Surinam grass; [10]) | Foxtail, Green plant response rating (green foxtail; [7]) | Plant response rating, Foxtail, Green (green foxtail; [10])
65: Plant response rating, Foxtail, Green (green foxtail; [11])
30: Plant response rating, Surinam Grass (Surinam grass; [9])
0: Plant response rating (0 to 100), Bromegrass, Downy (downy brome; Postemergence, 31 g ai/ha) | Plant response rating (0 to 100), Bromegrass, Downy (downy brome; Postemergence, 62 g ai/ha) | Plant response rating (0 to 100), Cupgrass, Woolly (woolly cupgrass; Postemergence, 31 g ai/ha) | Plant response rating (0 to 100), Cupgrass, Woolly (woolly cupgrass; Postemergence, 62 g ai/ha) | Plant response rating, Cupgrass, Woolly (woolly cupgrass; [11]) | Plant response rating (0 to 100), Surinam Grass (Surinam grass; Postemergence, 31 g ai/ha) | Plant response rating (0 to 100), Surinam Grass (Surinam grass; Postemergence, 62 g ai/ha) | Plant response rating (0 to 100), Velvetleaf (velvetleaf [3]; Postemergence, 31 g ai/ha) | Plant response rating (0 to 100), Velvetleaf (velvetleaf [3]; Postemergence, 62 g ai/ha) | Plant response rating (0 to 100), Lambsquarters (lambsquarters; Postemergence, 62 g ai/ha) | Plant response rating, Lambsquarters (lambsquarters; Postemergence, 125 g ai/ha) | Plant response rating (0 to 100), Ragweed (common ragweed; Postemergence, 31 g ai/ha) | Plant response rating, Barnyardgrass (barnyardgrass [4]; [13]) | Plant response rating (0 to 100), Foxtail, Green (green foxtail; Postemergence, 31 g ai/ha) | Plant response rating (0 to 100), Pigweed (pigweed; 31 g ai/ha) | Plant response rating (0 to 100), Pigweed (pigweed; 62 g ai/ha)
55: Plant response rating (0 to 100), Soybean (soybean; Postemergence, 62 g ai/ha)
90: Crabgrass, Large plant response rating (crabgrass; [5]) | Barnyardgrass plant response rating (barnyardgrass [1]; [5]) | Foxtail, Giant plant response rating (giant foxtail; [5]) | Foxtail, Giant plant response rating (giant foxtail; [6]) | Plant response rating, Blackgrass (blackgrass; [9]) | Plant response rating, Blackgrass (blackgrass; [10]) | Plant response rating, Ducksalad (duck salad; [13]) | Lambsquarters plant response rating (lambsquarters; [7])
60: Plant response rating, Bromegrass, Downy (downy brome; [10]) | Plant response rating, Surinam Grass (Surinam grass; [11]) | Plant response rating, Velvetleaf (velvetleaf [2]; Postemergence, 125 g ai/ha) | Soybean plant response rating (soybean; [7]) | Plant response rating, Soybean (soybean; [9]) | Plant response rating, Soybean (soybean; [11]) | Plant response rating (0 to 100), Foxtail, Green (green foxtail; Postemergence, 62 g ai/ha) | Plant response rating, Pigweed (pigweed; 250 g ai/ha)
80: Plant response rating, Barnyardgrass (barnyardgrass [1]; Postemergence, 125 g ai/ha) | Plant response rating, Foxtail, Giant (giant foxtail; Postemergence, 125 g ai/ha) | Plant response rating (0 to 100), Blackgrass (blackgrass; Postemergence, 62 g ai/ha) | Velvetleaf plant response rating (velvetleaf [2]; [5]) | Velvetleaf plant response rating (velvetleaf [2]; [6]) | Soybean plant response rating (soybean; [12])
45: Plant response rating, Ragweed (common ragweed; [9])
98: Plant response rating, Blackgrass (blackgrass; [11]) | Cupgrass, Woolly plant response rating (woolly cupgrass; [8]) | Surinam Grass plant response rating (Surinam grass; [8])
50: Bromegrass, Downy plant response rating (downy brome; [7]) | Plant response rating, Bromegrass, Downy (downy brome; [11]) | Cupgrass, Woolly plant response rating (woolly cupgrass; [7]) | Plant response rating, Cupgrass, Woolly (woolly cupgrass; [10]) | Plant response rating, Velvetleaf (velvetleaf [3]; [9]) | Ragweed plant response rating (common ragweed; [7]) | Plant response rating, Ragweed (common ragweed; [10]) | Plant response rating, Ragweed (common ragweed; [11]) | Plant response rating (0 to 100), Soybean (soybean; Postemergence, 31 g ai/ha)
